Experimental data reported in patent US10913781B2, “Pepducin design and use” (Tufts Medical Center, Inc., priority 2011, dated 2021).

Experiments:
PAR2 [1] = molecular target: T1, PAR2 (Homo sapiens, UniProt P55085); assay: PLC-b inositol phosphate formation, PAR2 (SLIGRL); format: cell-based; parameters: expressed in transfected cells; host or cells: COS7
Method: (A) PAR2 antagonist pepducins P2pal-18S and P2pal-14GQ inhibit calcium flux induced by PAR2 (SLIGRL) (SEQ ID NO:4) but not PAR1 (TFLLRN) (SEQ ID NO:2) agonists. SW620 cells were stably transfected with PAR1 and pretreated for 1 min with various concentrations of P2pal-18S or P2pal-14GQ and then stimulated with 30 μM PAR agonist. […] Cells were stimulated with 1 μM TFLLRN (SEQ ID NO:2), 1 μM SLIGRL (SEQ ID NO:4) or 100 μM AYPGKF (SEQ ID NO:5) and [^3H]-InsP formation measured over 30 min. (C) SW620 cells were treated with the indicated concentrations of P2pal-18S or P2pal-14GQ in the upper well of an 8-μm pore Boyden chamber and allowed to migrate for 18 h towards 10 μM of the PAR2 specific agonist SLIGRL in the lower chamber. The migration to RPMI/0.1% FBS represents random migration. (D) Migration of HEK cells transiently transfected with PAR2 (wild-type, WT), or PAR2-R36A/PAR2-RQ toward chemotactic gradients of 30 nM trypsin in the absence or presence of the indicated concentration of P2pal-18S for 18 h in a transwell apparatus ([…]). Data (n=2-4) are mean±SEM. *, P<0.05 and **, P<0.005.
Additionally, we tested whether P2pal-18S inhibited proteolytic cleavage of PAR2 or endocytosis (DeFea K A, et al. (2000) J Cell Biol 148: 1267-81; Roosterman D, et al. (2003) Am J Physiol Cell Physiol 284: C1319-29; Stalheim L, et al. (2005) Mol Pharmacol 67: 78-87). […]

PAR2 [2] = molecular target: PAR2 (Mus musculus, UniProt P55086); assay: SLIGRL-induced mouse paw edema; format: in vivo; parameters: from tissue; host or cells: living C57BL/6 mice, hindpaw; settings: WT C57BL/6 mice; 10 mg/kg s.c.
Method: (A) λ-carrageenan/kaolin or (B) the PAR2 specific agonist SLIGRL was administered by intraplantar injection to the left hindpaw of C57BL/6 wild-type or PAR2^−/− mice that were treated with subcutaneous (s.c.) injection of 10 mg/kg of P2pal-18S or vehicle. Paw area was measured and reported as fold-increase relative to baseline paw area. (C) Histology of representative H&E-stained footpads 7 h after λ-carrageenan/kaolin injection and quantification of the infiltrating inflammatory cells at 40× magnification. […]
To evaluate the in vivo efficacy and specificity of P2pal-18S, the ability of the pepducins of the present invention was tested to protect against inflammatory hindlimb paw edema in wild-type (WT) and PAR2-deficient mouse strains (Damiano B P, et al. (1999) J Pharmacol Exp Ther 288: 671-78.) Acute inflammatory edema was induced by an intraplantar injection of λ-carrageenan and kaolin, irritants which cause a massive leukocytosis and hyperemic response, which leads to localized swelling. PAR2-dependent activity of an embodiment of the present invention, polypeptide P2pal-18S, was directly assessed by quantifying its inhibitory effects against the PAR2-specific agonist SLIGRL when injected into the hind footpad of WT C57BL/6 mice. […]

PAR2 [3] = molecular target: T1, PAR2; assay: Human neutrophil chemotaxis to PAR2 agonists (trypsin, SLIGRL, tryptase); format: cell-based; parameters: SW620 colon adenocarcinoma cells that endogenously express PAR2; endogenous in cells; host or cells: SW620 (in A7 the SW620 cells were additionally stably transfected with PAR1)
Method: (A) Human neutrophils (n=4 normal volunteers) were analyzed for surface expression of human PAR1, PAR2, and PAR4 by flow cytometry with PAR-specific antibodies. […] Chemotaxis index is the ratio of directed versus random migration over 30 min through a 5-μm pore filter.
The ability of some pepducin embodiments of the invention to antagonize PAR2-dependent activity of human neutrophils was tested. Neutrophils were isolated from the peripheral blood of healthy human volunteers and found to express high levels of surface PAR2 and PAR4 and lower apparent levels of PAR1 by flow cytometry (FIG. 3A). […] As human PAR2 shares 85% identity with mouse PAR2 and the mouse i3 loop retains all of the critical pharmacophores identified in the human PAR2 i3 loop, cross-species inhibition with mouse cells was tested.

T1 sequence (P55085 26-397): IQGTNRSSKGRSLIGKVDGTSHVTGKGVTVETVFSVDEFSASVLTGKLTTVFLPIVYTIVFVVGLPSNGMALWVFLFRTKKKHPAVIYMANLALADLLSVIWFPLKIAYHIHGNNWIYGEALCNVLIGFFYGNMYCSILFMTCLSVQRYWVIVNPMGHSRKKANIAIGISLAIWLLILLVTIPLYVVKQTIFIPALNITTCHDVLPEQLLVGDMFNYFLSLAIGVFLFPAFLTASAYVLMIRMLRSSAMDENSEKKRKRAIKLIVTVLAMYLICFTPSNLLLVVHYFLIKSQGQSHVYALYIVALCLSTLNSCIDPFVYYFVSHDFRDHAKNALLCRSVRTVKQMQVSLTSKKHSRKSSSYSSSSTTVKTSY
Sequence of PAR2 (Mus musculus, UniProt P55086) (P55086 26-399): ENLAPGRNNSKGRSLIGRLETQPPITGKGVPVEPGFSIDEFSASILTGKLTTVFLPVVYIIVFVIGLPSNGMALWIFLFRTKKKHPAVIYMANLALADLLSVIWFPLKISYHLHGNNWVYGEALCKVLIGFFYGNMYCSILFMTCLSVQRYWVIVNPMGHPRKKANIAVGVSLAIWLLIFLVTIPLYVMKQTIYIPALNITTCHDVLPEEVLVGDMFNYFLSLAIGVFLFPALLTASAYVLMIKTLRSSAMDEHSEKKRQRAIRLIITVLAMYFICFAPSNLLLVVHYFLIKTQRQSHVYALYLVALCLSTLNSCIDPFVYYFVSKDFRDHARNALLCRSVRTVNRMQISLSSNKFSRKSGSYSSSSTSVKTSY

Inhibition of PAR2-dependent PLC-b inositol phosphate formation (PAR2 [1]): can inhibit
Decrease in SLIGRL-induced edema (PAR2 [2]): 85%
Inhibition of chemotactic migration to tryptase (PAR2 [3]; 0.3 μM pepducin, 100 nM tryptase): completely blocked
IC50 (PAR2 [3]; gradients of trypsin (30 nM) and SLIGRL (10 μM), 30 min, read-out: IC50, inhibition of neutrophil chemotaxis): 0.14 to 0.2 µM
Compound: CCCCCCCCCCCCCCCC(=O)N[C@@H](CCCNC(=N)N)C(=O)N[C@@H](CO)C(=O)N[C@@H](CO)C(=O)N[C@@H](C)C(=O)N[C@@H](CCSC)C(=O)N[C@@H](CC(=O)O)C(=O)N[C@@H](CCC(=O)O)C(=O)N[C@@H](CC(N)=O)C(=O)N[C@@H](CO)C(=O)N[C@@H](CCC(=O)O)C(=O)N[C@@H](CCCCN)C(=O)N[C@@H](CCCCN)C(=O)N[C@@H](CCCNC(=N)N)C(=O)N[C@@H](CCCCN)C(=O)N[C@@H](CO)C(=O)N[C@@H](C)C(=O)N[C@H](C(=O)N[C@@H](CCCCN)C(N)=O)[C@@H](C)CC [P2pal-18S]
